Measured values as given in patent US7118895B2, “Process for producing aglycon by using diglycosidase and flavor-improved food containing the aglycon and converting agent to be used in the process” (Amano Enzyme Inc., priority 2000, dated 2006).

Test system: Crude diglycosidase
Assay: Examination of temperature in the conversion into isoflavone aglycons by diglycosidase using soybean materials
Format: biochemical, Penicillium multicolor IAM7153
Parameters: Decomposition efficiency of glycitin family in roasted soy flour / Decomposition efficiency of daidzin family in roasted soy flour / Decomposition efficiency of genistin family in soymilk / Decomposition efficiency of daidzin family in soymilk / Decomposition efficiency of glycitin family in defatted soybean / Decomposition efficiency of daidzin family in defatted soybean: concentration or dose not given beside the values
Conditions: for maximum isolation of aglycons: reaction at 55° C. for 6 hours
In short: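 Temperature series (30-80° C.) of crude diglycosidase, diluted to 1.88 AU/mL in 20 mM acetate pH 4.0, acting on roasted soy flour, soymilk, defatted soybean or soy protein concentrate. Samples quenched with ethanol after 0-6 h, centrifuged, filtered and analyzed by HPLC for glycosides versus aglycons.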

[1] = 30° C., heat treatment of enzyme no, reaction time 0 h
[2] = 30° C., heat treatment of enzyme no, reaction time 1 h
[3] = 30° C., heat treatment of enzyme no, reaction time 3 h
[4] = 30° C., heat treatment of enzyme no, reaction time 6 h
[5] = 30° C., heat treatment of enzyme yes, reaction time 6 h
[6] = 45° C., heat treatment of enzyme no, reaction time 0 h
[7] = 45° C., heat treatment of enzyme no, reaction time 1 h
[8] = 45° C., heat treatment of enzyme no, reaction time 3 h
[9] = 45° C., heat treatment of enzyme no, reaction time 6 h
[10] = 45° C., heat treatment of enzyme yes, reaction time 6 h
[11] = 45 °C, heat treatment of enzyme: no, 0 h
[12] = 45 °C, heat treatment of enzyme: no, 1 h
[13] = 45 °C, heat treatment of enzyme: no, 3 h
[14] = 45 °C, heat treatment of enzyme: no, 6 h
[15] = 45 °C, heat treatment of enzyme: yes, 6 h
[16] = 55° C., heat treatment of enzyme no, reaction time 0 h
[17] = 55° C., heat treatment of enzyme no, reaction time 1 h
[18] = 55° C., heat treatment of enzyme no, reaction time 3 h
[19] = 55° C., heat treatment of enzyme no, reaction time 6 h
[20] = 55° C., heat treatment of enzyme yes, reaction time 6 h
[21] = 55 °C, heat treatment of enzyme: no, 0 h
[22] = 55 °C, heat treatment of enzyme: no, 1 h
[23] = 55 °C, heat treatment of enzyme: no, 3 h
[24] = 55 °C, heat treatment of enzyme: no, 6 h
[25] = 55 °C, heat treatment of enzyme: yes, 6 h
[26] = 65° C., heat treatment of enzyme no, reaction time 0 h
[27] = 65° C., heat treatment of enzyme no, reaction time 1 h
[28] = 65° C., heat treatment of enzyme no, reaction time 3 h
[29] = 65° C., heat treatment of enzyme no, reaction time 6 h
[30] = 65° C., heat treatment of enzyme yes, reaction time 6 h
[31] = 65 °C, heat treatment of enzyme: no, 0 h
[32] = 65 °C, heat treatment of enzyme: no, 1 h
[33] = 65 °C, heat treatment of enzyme: no, 3 h
[34] = 65 °C, heat treatment of enzyme: no, 6 h
[35] = 65 °C, heat treatment of enzyme: yes, 6 h
[36] = 80° C., heat treatment of enzyme no, reaction time 0 h
[37] = 80° C., heat treatment of enzyme no, reaction time 1 h
[38] = 80° C., heat treatment of enzyme no, reaction time 3 h
[39] = 80° C., heat treatment of enzyme no, reaction time 6 h
[40] = 80° C., heat treatment of enzyme yes, reaction time 6 h
[41] = 80 °C, heat treatment of enzyme: no, 0 h
[42] = 80 °C, heat treatment of enzyme: no, 1 h
[43] = 80 °C, heat treatment of enzyme: no, 3 h
[44] = 80 °C, heat treatment of enzyme: no, 6 h
[45] = 80 °C, heat treatment of enzyme: yes, 6 h

- Decomposition efficiency of daidzin family in concentrated soybean protein [1]: 3.0%
- Decomposition efficiency of daidzin family in defatted soybean [1]: 14.5%
- Decomposition efficiency of daidzin family in concentrated soybean protein [2]: 26.2%
- Decomposition efficiency of daidzin family in defatted soybean [2]: 53.4%
- Decomposition efficiency of daidzin family in concentrated soybean protein [3]: 42.7%
- Decomposition efficiency of daidzin family in defatted soybean [3]: 54.8%
- Decomposition efficiency of daidzin family in concentrated soybean protein [4]: 52.5%
- Decomposition efficiency of daidzin family in defatted soybean [4]: 54.9%
- Decomposition efficiency of daidzin family in concentrated soybean protein [5]: 3.2%
- Decomposition efficiency of daidzin family in defatted soybean [5]: 54.6%
- Decomposition efficiency of daidzin family in soymilk (30 °C, heat treatment of enzyme: no, 0 h): 9.1%
- Decomposition efficiency of daidzin family in soymilk (30 °C, heat treatment of enzyme: no, 1 h): 41.8%
- Decomposition efficiency of daidzin family in soymilk (30 °C, heat treatment of enzyme: no, 3 h): 47.2%
- Decomposition efficiency of daidzin family in soymilk (30 °C, heat treatment of enzyme: no, 6 h): 53.8%
- Decomposition efficiency of daidzin family in soymilk (30 °C, heat treatment of enzyme: yes, 6 h): 9.1%
- Decomposition efficiency of daidzin family in roasted soy flour (35 °C, heat treatment of enzyme: no, 0 h): 3.6%
- Decomposition efficiency of daidzin family in roasted soy flour (35 °C, heat treatment of enzyme: no, 1 h): 41.4%
- Decomposition efficiency of daidzin family in roasted soy flour (35 °C, heat treatment of enzyme: no, 3 h): 54.7%
- Decomposition efficiency of daidzin family in roasted soy flour (35 °C, heat treatment of enzyme: no, 6 h): 60.4%
- Decomposition efficiency of daidzin family in roasted soy flour (35 °C, heat treatment of enzyme: yes, 6 h): 5.8%
- Decomposition efficiency of daidzin family in concentrated soybean protein [6]: 3.1%
- Decomposition efficiency of daidzin family in defatted soybean [6]: 16.2%
- Decomposition efficiency of daidzin family in concentrated soybean protein [7]: 45.3%
- Decomposition efficiency of daidzin family in defatted soybean [7]: 54.5%
- Decomposition efficiency of daidzin family in concentrated soybean protein [8]: 48.8%
- Decomposition efficiency of daidzin family in defatted soybean [8]: 56.3%
- Decomposition efficiency of daidzin family in concentrated soybean protein [9]: 55.5%
- Decomposition efficiency of daidzin family in defatted soybean [9]: 58.3%
- Decomposition efficiency of daidzin family in concentrated soybean protein [10]: 5.7%
- Decomposition efficiency of daidzin family in defatted soybean [10]: 55.7%
- Decomposition efficiency of daidzin family in roasted soy flour [11]: 3.7%
- Decomposition efficiency of daidzin family in soymilk [11]: 8.9%
- Decomposition efficiency of daidzin family in roasted soy flour [12]: 53.5%
- Decomposition efficiency of daidzin family in soymilk [12]: 43.0%
- Decomposition efficiency of daidzin family in roasted soy flour [13]: 59.4%
- Decomposition efficiency of daidzin family in soymilk [13]: 52.0%
- Decomposition efficiency of daidzin family in roasted soy flour [14]: 66.2%
- Decomposition efficiency of daidzin family in soymilk [14]: 62.8%
- Decomposition efficiency of daidzin family in roasted soy flour [15]: 8.1%
- Decomposition efficiency of daidzin family in soymilk [15]: 8.2%
- Decomposition efficiency of daidzin family in concentrated soybean protein [16]: 3.0%
- Decomposition efficiency of daidzin family in defatted soybean [16]: 14.5%
- Decomposition efficiency of daidzin family in concentrated soybean protein [17]: 55.0%
- Decomposition efficiency of daidzin family in defatted soybean [17]: 55.0%
- Decomposition efficiency of daidzin family in concentrated soybean protein [18]: 59.4%
- Decomposition efficiency of daidzin family in defatted soybean [18]: 57.3%
- Decomposition efficiency of daidzin family in concentrated soybean protein [19]: 62.3%
- Decomposition efficiency of daidzin family in defatted soybean [19]: 59.7%
- Decomposition efficiency of daidzin family in concentrated soybean protein [20]: 3.2%
- Decomposition efficiency of daidzin family in defatted soybean [20]: 55.9%
- Decomposition efficiency of daidzin family in roasted soy flour [21]: 3.7%
- Decomposition efficiency of daidzin family in soymilk [21]: 8.6%
- Decomposition efficiency of daidzin family in roasted soy flour [22]: 57.2%
- Decomposition efficiency of daidzin family in soymilk [22]: 49.1%
- Decomposition efficiency of daidzin family in roasted soy flour [23]: 67.5%
- Decomposition efficiency of daidzin family in soymilk [23]: 58.9%
- Decomposition efficiency of daidzin family in roasted soy flour [24]: 73.3%
- Decomposition efficiency of daidzin family in soymilk [24]: 68.9%
- Decomposition efficiency of daidzin family in roasted soy flour [25]: 5.3%
- Decomposition efficiency of daidzin family in soymilk [25]: 8.6%
- Decomposition efficiency of daidzin family in concentrated soybean protein [26]: 3.0%
- Decomposition efficiency of daidzin family in defatted soybean [26]: 16.2%
- Decomposition efficiency of daidzin family in concentrated soybean protein [27]: 53.9%
- Decomposition efficiency of daidzin family in defatted soybean [27]: 55.3%
- Decomposition efficiency of daidzin family in concentrated soybean protein [28]: 55.4%
- Decomposition efficiency of daidzin family in defatted soybean [28]: 58.4%
- Decomposition efficiency of daidzin family in concentrated soybean protein [29]: 56.7%
- Decomposition efficiency of daidzin family in defatted soybean [29]: 62.7%
- Decomposition efficiency of daidzin family in concentrated soybean protein [30]: 3.2%
- Decomposition efficiency of daidzin family in defatted soybean [30]: 32.0%
- Decomposition efficiency of daidzin family in roasted soy flour [31]: 3.6%
- Decomposition efficiency of daidzin family in soymilk [31]: 9.1%
- Decomposition efficiency of daidzin family in roasted soy flour [32]: 56.3%
- Decomposition efficiency of daidzin family in soymilk [32]: 48.3%
- Decomposition efficiency of daidzin family in roasted soy flour [33]: 59.8%
- Decomposition efficiency of daidzin family in soymilk [33]: 56.1%
- Decomposition efficiency of daidzin family in roasted soy flour [34]: 62.2%
- Decomposition efficiency of daidzin family in soymilk [34]: 64.7%
- Decomposition efficiency of daidzin family in roasted soy flour [35]: 4.2%
- Decomposition efficiency of daidzin family in soymilk [35]: 8.8%
- Decomposition efficiency of daidzin family in concentrated soybean protein [36]: 3.1%
- Decomposition efficiency of daidzin family in defatted soybean [36]: 16.2%
- Decomposition efficiency of daidzin family in concentrated soybean protein [37]: 31.9%
- Decomposition efficiency of daidzin family in defatted soybean [37]: 52.4%
- Decomposition efficiency of daidzin family in concentrated soybean protein [38]: 32.0%
- Decomposition efficiency of daidzin family in defatted soybean [38]: 52.0%
- Decomposition efficiency of daidzin family in concentrated soybean protein [39]: 30.7%
- Decomposition efficiency of daidzin family in defatted soybean [39]: 51.7%
- Decomposition efficiency of daidzin family in concentrated soybean protein [40]: 3.2%
- Decomposition efficiency of daidzin family in defatted soybean [40]: 21.7%
- Decomposition efficiency of daidzin family in roasted soy flour [41]: 3.7%
- Decomposition efficiency of daidzin family in soymilk [41]: 8.9%
- Decomposition efficiency of daidzin family in roasted soy flour [42]: 47.7%
- Decomposition efficiency of daidzin family in soymilk [42]: 40.3%
- Decomposition efficiency of daidzin family in roasted soy flour [43]: 47.7%
- Decomposition efficiency of daidzin family in soymilk [43]: 39.7%
- Decomposition efficiency of daidzin family in roasted soy flour [44]: 40.8%
- Decomposition efficiency of daidzin family in soymilk [44]: 34.1%
- Decomposition efficiency of daidzin family in roasted soy flour [45]: 3.8%
- Decomposition efficiency of daidzin family in soymilk [45]: 8.8%
- maximum isolation of aglycons (concentrated soybean protein): about 62%
- maximum isolation of aglycons (defatted soybean): about 60%
- maximum isolation of aglycons (soy flour): about 73%
- maximum isolation of aglycons (soymilk): about 70%
SMILES: O=c1c(-c2ccc(O)cc2)coc2cc(O)ccc12 [daidzein]
